From patent publication US9615576B2, “Pesticidal compositions and processes related thereto” (Dow AgroSciences LLC, priority 2011, dated 2017)

Columns and labels:
[1] = system: Corn Earworm (CEW) (Helicoverpa zea); experiment: Bioassays on Corn Earworm (CEW), 128-well diet tray assay; type: in vivo; conditions: 168 h, 50 μg/cm^2 test compound on artificial diet, second instar larvae, 25° C., five to seven days, average of eight wells, read-out: CEW Rating (% mortality)
Description: (§1) Certain molecules disclosed in this document were tested against BAW and CEW using procedures described in the following examples. In the reporting of the results, the “BAW & CEW Rating Table” was used (See Table Section).
Bioassays on CEW (Helicoverpa zea)
Bioassays on CEW were conducted using a 128-well diet tray assay. one to five second instar CEW larvae were placed in each well (3 mL) of the diet tray that had been previously filled with 1 mL of artificial diet to which 50 μg/cm^2 of the test compound (dissolved in 50 μL of 90:10 acetone-water mixture) had been applied (to each of eight wells) and then allowed to dry. Trays were covered with a clear self-adhesive cover, and held at 25° C., 14:10 light-dark for five to seven days. Percent mortality was recorded for the larvae in each well; activity in the eight wells was then averaged. The results are indicated in the table entitled “Table 3: Assay Results” (See Table Section).

[2] = system: Beet Armyworm (BAW) (Spodoptera exigua); experiment: Bioassays on Beet Armyworm (BAW), 128-well diet tray assay; type: in vivo; conditions: 168 h, 50 μg/cm^2 test compound on artificial diet, second instar larvae, 25° C., five to seven days, average of eight wells, read-out: BAW Rating (% mortality)
Description: as §1
Bioassays on BAW (Spodoptera exigua)
Bioassays on BAW were conducted using a 128-well diet tray assay. one to five second instar BAW larvae were placed in each well (3 mL) of the diet tray that had been previously filled with 1 mL of artificial diet to which 50 μg/cm^2 of the test compound (dissolved in 50 μL of 90:10 acetone-water mixture) had been applied (to each of eight wells) and then allowed to dry. Trays were covered with a clear self-adhesive cover, and held at 25° C., 14:10 light-dark for five to seven days. Percent mortality was recorded for the larvae in each well; activity in the eight wells was then averaged. The results are indicated in the table entitled “Table 3: Assay Results” (See Table Section).

## O=C(NCC(=S)NCC(F)(F)F)c1ccc(/C=C/C(c2cc(Cl)c(Cl)c(Cl)c2)C(F)(F)F)cc1Br (stereo not drawn) [AC92, (E)-2-bromo-N-(2-thioxo-2-((2,2,2-trifluoroethyl)amino)ethyl)-4-(4,4,4-trifluoro-3-(3,4,5-trichlorophenyl)but-1-en-1-yl)benzamide]
[1]
  mortality at 50 µg/cm2: 50 to 100%
[2]
  mortality at 50 µg/cm2: 50 to 100%

## Cc1cc(/C=C\C(c2cc(Cl)cc(Cl)c2)C(F)(F)F)ccc1C(=O)NCC(=O)NC1CC1 (stereo not drawn) [AC93]
[1]
  mortality at 50 µg/cm2: 0%
[2]
  mortality at 50 µg/cm2: 50 to 100%

## Cc1cc(/C=C\C(c2cc(Cl)cc(Cl)c2)C(F)(F)F)ccc1C(=O)NCc1ccc(Cl)nc1 (stereo not drawn) [AC94]
[1]
  mortality at 50 µg/cm2: 0 to 50%
[2]
  mortality at 50 µg/cm2: 0%

## O=C(CNC(=O)c1ccc(/C=C\C(c2cc(Cl)c(Cl)c(Cl)c2)C(F)(F)F)cc1Br)NCC(F)(F)F (stereo not drawn) [AC95, (Z)-2-bromo-N-(2-oxo-2-((2,2,2-trifluoroethyl)amino)ethyl)-4-(4,4,4-trifluoro-3-(3,4,5-trichlorophenyl)but-1-en-1-yl)benzamide]
[1]
  mortality at 50 µg/cm2: 50 to 100%
[2]
  mortality at 50 µg/cm2: 50 to 100%

## CN(C)c1ccc(CNC(=O)c2ccc(/C=C/C(c3cc(Cl)c(Cl)c(Cl)c3)C(F)(F)F)cc2Br)cn1 (stereo not drawn) [AC96]
[1]
  mortality at 50 µg/cm2: 0%
[2]
  mortality at 50 µg/cm2: 0%

## COc1ccc(CNC(=O)c2ccc(/C=C/C(c3cc(Cl)c(Cl)c(Cl)c3)C(F)(F)F)cc2Br)cn1 (stereo not drawn) [AC97]
[1]
  mortality at 50 µg/cm2: 0%
[2]
  mortality at 50 µg/cm2: 0%

## O=C(CNC(=O)c1ccc(/C=C/C(c2cc(Cl)c(F)c(Cl)c2)C(F)(F)F)cc1[N+](=O)[O-])NCC(F)(F)F (stereo not drawn) [AC98]
[1]
  mortality at 50 µg/cm2: 50 to 100%
[2]
  mortality at 50 µg/cm2: 50 to 100%

## O=C(CNC(=O)c1ccc(/C=C/C(c2ccc(F)c(Cl)c2)C(F)(F)F)cc1Br)NCC(F)(F)F (stereo not drawn) [AC99]
[1]
  mortality at 50 µg/cm2: 50 to 100%
[2]
  mortality at 50 µg/cm2: 50 to 100%

## O=C(c1ccc(/C=C/C(c2cc(Cl)c(Cl)c(Cl)c2)C(F)(F)F)cc1Br)N1CCN(CC(F)(F)F)CC1 (stereo not drawn) [AC101]
[1]
  mortality at 50 µg/cm2: 0%
[2]
  mortality at 50 µg/cm2: 0%

## O=C(CNC(=O)c1ccc(/C=C/C(c2cc(F)c(Cl)c(F)c2)C(F)(F)F)cc1Br)NCC(F)(F)F (stereo not drawn) [AC102]
[1]
  mortality at 50 µg/cm2: 50 to 100%
[2]
  mortality at 50 µg/cm2: 0%

## CC(=O)N1CCC(NC(=O)c2ccc(/C=C/C(c3cc(Cl)c(Cl)c(Cl)c3)C(F)(F)F)cc2Br)CC1 (stereo not drawn) [AC103, (E)-N-(1-acetylpiperidin-4-yl)-2-bromo-4-(4,4,4-trifluoro-3-(3,4,5-trichlorophenyl)but-1-en-1-yl)benzamide]
[1]
  mortality at 50 µg/cm2: 50 to 100%
[2]
  mortality at 50 µg/cm2: 50 to 100%

## O=C(NC1CCN(C(=O)CC(F)(F)F)CC1)c1ccc(/C=C/C(c2cc(Cl)c(Cl)c(Cl)c2)C(F)(F)F)cc1Br (stereo not drawn) [AC104, (E)-2-bromo-4-(4,4,4-trifluoro-3-(3,4,5-trichlorophenyl)but-1-en-1-yl)-N-(1-(3,3,3-trifluoropropanoyl)piperidin-4-yl)benzamide]
[1]
  mortality at 50 µg/cm2: 50 to 100%
[2]
  mortality at 50 µg/cm2: 50 to 100%

## O=C(NC1CCN(CC(F)(F)F)CC1)c1ccc(/C=C/C(c2cc(Cl)c(Cl)c(Cl)c2)C(F)(F)F)cc1Br (stereo not drawn) [AC105, (E)-2-bromo-4-(4,4,4-trifluoro-3-(3,4,5-trichlorophenyl)but-1-en-1-yl)-N-(1-(2,2,2-trifluoroethyl)piperidin-4-yl)benzamide]
[1]
  mortality at 50 µg/cm2: 50 to 100%
[2]
  mortality at 50 µg/cm2: 50 to 100%

## CN1CCC(NC(=O)c2ccc(/C=C/C(c3cc(Cl)c(Cl)c(Cl)c3)C(F)(F)F)cc2Br)CC1 (stereo not drawn) [AC106, (E)-2-bromo-N-(1-methylpiperidin-4-yl)-4-(4,4,4-trifluoro-3-(3,4,5-trichlorophenyl)but-1-en-1-yl)benzamide]
[1]
  mortality at 50 µg/cm2: 50 to 100%
[2]
  mortality at 50 µg/cm2: 50 to 100%

## N#CCN1CCC(NC(=O)c2ccc(/C=C/C(c3cc(Cl)c(Cl)c(Cl)c3)C(F)(F)F)cc2Br)CC1 (stereo not drawn) [AC107]
[1]
  mortality at 50 µg/cm2: 50 to 100%
[2]
  mortality at 50 µg/cm2: 0 to 50%

## O=C(NC1CCN(C2COC2)CC1)c1ccc(/C=C/C(c2cc(Cl)c(Cl)c(Cl)c2)C(F)(F)F)cc1Br (stereo not drawn) [AC108, (E)-2-bromo-N-(1-(oxetan-3-yl)piperidin-4-yl)-4-(4,4,4-trifluoro-3-(3,4,5-trichlorophenyl)but-1-en-1-yl)benzamide]
[1]
  mortality at 50 µg/cm2: 0%
[2]
  mortality at 50 µg/cm2: 0 to 50%

## O=C(NC1CCN(CCO)CC1)c1ccc(/C=C/C(c2cc(Cl)c(Cl)c(Cl)c2)C(F)(F)F)cc1Br (stereo not drawn) [AC109, (E)-2-bromo-N-(1-(2-hydroxyethyl)piperidin-4-yl)-4-(4,4,4-trifluoro-3-(3,4,5-trichlorophenyl)but-1-en-1-yl)benzamide]
[1]
  mortality at 50 µg/cm2: 0%
[2]
  mortality at 50 µg/cm2: 0%

## CONC(=O)CNC(=O)c1ccc(/C=C/C(c2cc(Cl)c(Cl)c(Cl)c2)C(F)(F)F)cc1Br (stereo not drawn) [AC110]
[1]
  mortality at 50 µg/cm2: 50 to 100%
[2]
  mortality at 50 µg/cm2: 50 to 100%

## C=CCNC(=O)CNC(=O)c1ccc(/C=C/C(c2cc(Cl)c(Cl)c(Cl)c2)C(F)(F)F)cc1Br (stereo not drawn) [AC111]
[1]
  mortality at 50 µg/cm2: 50 to 100%
[2]
  mortality at 50 µg/cm2: 50 to 100%

## CN(C)NC(=O)CNC(=O)c1ccc(/C=C/C(c2cc(Cl)c(Cl)c(Cl)c2)C(F)(F)F)cc1Br (stereo not drawn) [AC112]
[1]
  mortality at 50 µg/cm2: 50 to 100%
[2]
  mortality at 50 µg/cm2: 50 to 100%

## O=C(NCCc1ccc(Cl)nc1)c1ccc(/C=C/C(c2cc(Cl)c(Cl)c(Cl)c2)C(F)(F)F)cc1Br (stereo not drawn) [AC113]
[1]
  mortality at 50 µg/cm2: 50 to 100%
[2]
  mortality at 50 µg/cm2: 0 to 50%

## O=C(NC1CCNCC1)c1ccc(/C=C/C(c2cc(Cl)c(Cl)c(Cl)c2)C(F)(F)F)cc1Br (stereo not drawn) [AC114, (E)-2-bromo-N-(piperidin-4-yl)-4-(4,4,4-trifluoro-3-(3,4,5-trichlorophenyl)but-1-en-1-yl)benzamide]
[1]
  mortality at 50 µg/cm2: 0 to 50%
[2]
  mortality at 50 µg/cm2: 50 to 100%

## Cc1cc(/C=C/C(c2cc(Cl)cc(Cl)c2)C(F)(F)F)ccc1C(=S)NCc1ccc(Cl)nc1 (stereo not drawn) [AC115, (E)-N-((6-chloropyridin-3-yl)methyl)-4-(3-(3,5-dichlorophenyl)-4,4,4-trifluorobut-1-en-1-yl)-2-methylbenzothioamide]
[1]
  mortality at 50 µg/cm2: 50 to 100%
[2]
  mortality at 50 µg/cm2: 50 to 100%

## Cc1cc(/C=C/C(c2cc(Cl)cc(Cl)c2)C(F)(F)F)ccc1C(=O)N(C)Cc1ccc(Cl)nc1 (stereo not drawn) [AC117]
[1]
  mortality at 50 µg/cm2: 0%
[2]
  mortality at 50 µg/cm2: 50 to 100%

## Cc1cc(/C=C/C(c2cc(Cl)cc(Cl)c2)C(F)(F)F)ccc1C(=O)NCC1CCCO1 (stereo not drawn) [AC118]
[1]
  mortality at 50 µg/cm2: 0%
[2]
  mortality at 50 µg/cm2: 50 to 100%

## CNC(=S)NC1CCc2cc(/C=C/C(c3cc(Cl)c(Cl)c(Cl)c3)C(F)(F)F)ccc21 (stereo not drawn) [BC1, (E)-1-methyl-3-(5-(4,4,4-trifluoro-3-(3,4,5-trichlorophenyl)-but-1-enyl)-2,3-dihydro-1H-inden-1-yl)thiourea]
[1]
  mortality at 50 µg/cm2: 50 to 100%
[2]
  mortality at 50 µg/cm2: 50 to 100%

## CCNC(=S)NC1CCc2cc(/C=C/C(c3cc(Cl)c(Cl)c(Cl)c3)C(F)(F)F)ccc21 (stereo not drawn) [BC2]
[1]
  mortality at 50 µg/cm2: 50 to 100%
[2]
  mortality at 50 µg/cm2: 50 to 100%

## C=CCNC(=S)NC1CCc2cc(/C=C/C(c3cc(Cl)c(Cl)c(Cl)c3)C(F)(F)F)ccc21 (stereo not drawn) [BC3]
[1]
  mortality at 50 µg/cm2: 50 to 100%
[2]
  mortality at 50 µg/cm2: 50 to 100%

## O=C(CC(F)(F)F)NC1CCc2cc(/C=C/C(c3cc(Cl)c(Cl)c(Cl)c3)C(F)(F)F)ccc21 (stereo not drawn) [BC4, (E)-3,3,3-trifluoro-N-(5-(4,4,4-trifluoro-3-(3,4,5-trichlorophenyl)but-1-enyl)-2,3-dihydro-1H-inden-1-yl)propanamide]
[1]
  mortality at 50 µg/cm2: 50 to 100%
[2]
  mortality at 50 µg/cm2: 50 to 100%

## O=C(CC(F)(F)F)NC1CCCc2cc(/C=C/C(c3cc(Cl)c(Cl)c(Cl)c3)C(F)(F)F)ccc21 (stereo not drawn) [BC5]
[1]
  mortality at 50 µg/cm2: 50 to 100%
[2]
  mortality at 50 µg/cm2: 50 to 100%

## O=C(NC1CCc2cc(/C=C/C(c3cc(Cl)c(Cl)c(Cl)c3)C(F)(F)F)ccc21)C1CC1 (stereo not drawn) [BC6]
[1]
  mortality at 50 µg/cm2: 50 to 100%
[2]
  mortality at 50 µg/cm2: 50 to 100%

## O=C(NC1CCCc2cc(/C=C/C(c3cc(Cl)c(Cl)c(Cl)c3)C(F)(F)F)ccc21)C1CC1 (stereo not drawn) [BC7]
[1]
  mortality at 50 µg/cm2: 50 to 100%
[2]
  mortality at 50 µg/cm2: 50 to 100%

## O=C(CC(F)(F)F)NC1CCc2cc(/C=C/C(c3cc(Cl)c(F)c(Cl)c3)C(F)(F)F)ccc21 (stereo not drawn) [BC8]
[1]
  mortality at 50 µg/cm2: 50 to 100%
[2]
  mortality at 50 µg/cm2: 50 to 100%

## O=C(Cc1ccc(Cl)nc1)NC1CCc2cc(/C=C/C(c3cc(Cl)c(F)c(Cl)c3)C(F)(F)F)ccc21 (stereo not drawn) [BC9]
[1]
  mortality at 50 µg/cm2: 50 to 100%
[2]
  mortality at 50 µg/cm2: 50 to 100%

## Fc1c(Cl)cc(C(/C=C/c2ccc3c(c2)CCC3NCCC(F)(F)F)C(F)(F)F)cc1Cl (stereo not drawn) [BC10, (E)-5-(3-(3,5-dichloro-4-fluorophenyl)-4,4,4-trifluorobut-1-en-1-yl)-N-(3,3,3-trifluoropropyl)-2,3-dihydro-1H-inden-1-amine]
[1]
  mortality at 50 µg/cm2: 50 to 100%
[2]
  mortality at 50 µg/cm2: 50 to 100%

## O=C(CC(F)(F)F)NCC(=O)n1ccc2cc(/C=C/C(c3cc(Cl)c(F)c(Cl)c3)C(F)(F)F)ccc21 (stereo not drawn) [BC13, (E)-N-(2-(5-(3-(3,5-dichloro-4-fluorophenyl)-4,4,4-trifluorobut-1-en-1-yl)-1H-indol-1-yl)-2-oxoethyl)-3,3,3-trifluoropropanamide]
[1]
  mortality at 50 µg/cm2: 50 to 100%
[2]
  mortality at 50 µg/cm2: 50 to 100%
